Data on 35 compounds can be found in patent US8614327B2 (Vertex Pharmaceuticals Incorporated, priority 2004, dated 2013).

For this assay, the target named is T1, ΔF508-CFTR (Homo sapiens, UniProt P13569, DEL508-508).
T1 construct: expressed in transfected cells
Kind of assay: Membrane potential optical (FRET/VIPR) assay, identification of potentiator compounds. The following applies: Table 3, assay not given; for % Activity: relative efficacy. It is filed as cell-based. In short, it runs like this:
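Double-addition potentiator screen: compound delivered in gluconate-substituted Cl^--free medium, membrane potential followed via CC2-DMPE/DiSBAC2(3) FRET on VIPR. Cells were ΔF508-CFTR-expressing NIH3T3 mouse fibroblasts, held 2 h at 37° C. then 24 h at 27° C. before assay.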

T1 sequence (P13569 with tags, fused parts or gaps DEL508-508): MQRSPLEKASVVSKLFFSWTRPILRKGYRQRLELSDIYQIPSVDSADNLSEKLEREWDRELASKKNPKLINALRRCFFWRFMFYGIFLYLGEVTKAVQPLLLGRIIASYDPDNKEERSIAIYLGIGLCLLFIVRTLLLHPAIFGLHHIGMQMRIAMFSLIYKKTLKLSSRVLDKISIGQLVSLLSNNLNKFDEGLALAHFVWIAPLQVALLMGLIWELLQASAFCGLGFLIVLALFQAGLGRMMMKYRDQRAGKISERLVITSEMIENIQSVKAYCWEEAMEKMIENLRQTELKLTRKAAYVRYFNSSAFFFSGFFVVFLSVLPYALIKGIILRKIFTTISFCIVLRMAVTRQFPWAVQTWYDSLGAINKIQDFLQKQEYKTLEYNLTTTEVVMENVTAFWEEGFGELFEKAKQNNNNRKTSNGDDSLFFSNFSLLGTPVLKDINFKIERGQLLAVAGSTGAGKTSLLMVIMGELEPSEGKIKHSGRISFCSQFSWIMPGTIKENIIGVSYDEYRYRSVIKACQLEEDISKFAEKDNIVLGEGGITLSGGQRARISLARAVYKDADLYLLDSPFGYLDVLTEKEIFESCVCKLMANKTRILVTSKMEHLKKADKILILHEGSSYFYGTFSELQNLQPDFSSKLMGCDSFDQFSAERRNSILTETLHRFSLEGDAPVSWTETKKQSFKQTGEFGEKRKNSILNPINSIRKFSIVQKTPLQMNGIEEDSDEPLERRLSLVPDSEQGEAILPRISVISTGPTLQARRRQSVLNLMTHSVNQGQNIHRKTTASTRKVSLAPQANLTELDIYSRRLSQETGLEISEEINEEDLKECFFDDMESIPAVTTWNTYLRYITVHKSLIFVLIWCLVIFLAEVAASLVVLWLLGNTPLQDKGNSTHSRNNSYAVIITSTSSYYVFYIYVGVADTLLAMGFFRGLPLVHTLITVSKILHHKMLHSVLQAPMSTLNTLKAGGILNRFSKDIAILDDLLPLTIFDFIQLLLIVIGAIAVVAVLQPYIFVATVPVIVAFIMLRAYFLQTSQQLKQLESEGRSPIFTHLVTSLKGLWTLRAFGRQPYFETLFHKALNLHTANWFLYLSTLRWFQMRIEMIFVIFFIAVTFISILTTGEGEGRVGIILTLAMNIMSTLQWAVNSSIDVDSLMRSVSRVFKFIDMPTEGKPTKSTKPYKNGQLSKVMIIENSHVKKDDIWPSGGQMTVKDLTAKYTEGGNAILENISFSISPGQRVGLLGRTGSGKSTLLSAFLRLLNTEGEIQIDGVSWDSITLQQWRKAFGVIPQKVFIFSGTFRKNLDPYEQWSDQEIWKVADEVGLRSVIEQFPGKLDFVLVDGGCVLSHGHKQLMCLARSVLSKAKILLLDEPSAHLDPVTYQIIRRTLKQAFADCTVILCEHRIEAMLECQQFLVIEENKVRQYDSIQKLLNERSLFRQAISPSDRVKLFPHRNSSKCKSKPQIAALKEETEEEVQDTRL

Regarding `CC(C)OC(=O)c1cccc(-c2ccccc2NC(=O)c2c[nH]c3ccccc3c2=O)c1` [Compound 71, 3-[2-[(4-oxo-1H-quinolin-3-yl)carbonylamino]phenyl]benzoic acid isopropyl ester], the 50% effective concentration (EC50) was under 10 µM and the “% Activity” value is recorded as “++ (between 25% to 100%)”.

`CCc1ccccc1NC(=O)c1c[nH]c2ccccc2c1=O` [Compound 72, N-(2-ethylphenyl)-4-oxo-1H-quinoline-3-carboxamide]: the EC50 was under 10 µM and the “% Activity” value is listed as “++ (between 25% to 100%)”.

In the case of `O=C(Nc1ccc2nc(-c3ccccc3)[nH]c2c1)c1c[nH]c2ccccc2c1=O` [Compound 73, 4-oxo-N-(2-phenyl-3H-benzoimidazol-5-yl)-1H-quinoline-3-carboxamide], the 50% effective concentration (EC50) is 25 to 60 µM and the “% Activity” value is “+ (<25%)”.

With `O=C(Nc1ccc(C(F)(F)F)cn1)c1c[nH]c2ccccc2c1=O` [Compound 74, 4-oxo-N-[5-(trifluoromethyl)-2-pyridyl]-1H-quinoline-3-carboxamide], the EC50 lay within 25 to 60 µM and the “% Activity” value is “+ (<25%)”.

With `O=C(Nc1cnc2ccccc2c1)c1c[nH]c2ccccc2c1=O` [Compound 75, 4-oxo-N-(3-quinolyl)-1H-quinoline-3-carboxamide], the EC50 lay in the range of 25 to 60 µM and the “% Activity” value is “+ (<25%)”.

On to `O=C(Nc1ccccc1-c1ccc(F)c(F)c1)c1c[nH]c2ccccc2c1=O` [Compound 76, N-[2-(3,4-difluorophenyl)phenyl]-4-oxo-1H-quinoline-3-carboxamide], for which the concentration giving a half-maximal response (EC50) was under 10 µM and the “% Activity” value is “++ (between 25% to 100%)”.

Take `O=C(Nc1cc2[nH]ccc2cc1F)c1c[nH]c2ccccc2c1=O` [Compound 77, N-(5-fluoro-1H-indol-6-yl)-4-oxo-1H-quinoline-3-carboxamide]: the concentration giving a half-maximal response (EC50) was under 10 µM and the “% Activity” value is given as “++ (between 25% to 100%)”.

As for `NS(=O)(=O)c1ccccc1NC(=O)c1c[nH]c2ccccc2c1=O` [Compound 78, 4-oxo-N-(2-sulfamoylphenyl)-1H-quinoline-3-carboxamide], the EC50 is 25 to 60 µM and the “% Activity” value is “+ (<25%)”.

Turning to `Cc1cc(-c2ccccc2NC(=O)c2c[nH]c3ccccc3c2=O)ccc1F` [Compound 79, N-[2-(4-fluoro-3-methyl-phenyl)phenyl]-4-oxo-1H-quinoline-3-carboxamide], the “% Activity” value is “++ (between 25% to 100%)”.

Consider `COc1ccccc1NC(=O)c1c[nH]c2ccccc2c1=O` [Compound 80, N-(2-methoxyphenyl)-4-oxo-1H-quinoline-3-carboxamide], for which the concentration giving a half-maximal response (EC50) was under 10 µM and the “% Activity” value is given as “++ (between 25% to 100%)”.

Take `CCC(=O)Nc1cccc(NC(=O)c2c[nH]c3ccccc3c2=O)c1` [Compound 81, 4-oxo-N-(3-propionylaminophenyl)-1H-quinoline-3-carboxamide]: the concentration for a half-maximal effect (EC50) was 25 to 60 µM and the “% Activity” value is listed as “+ (<25%)”.

On to `CCN(CC)c1ccc(NC(=O)c2c[nH]c3ccccc3c2=O)c(C)c1` [Compound 82, N-(4-diethylamino-2-methyl-phenyl)-4-oxo-1H-quinoline-3-carboxamide], for which the EC50 is under 10 µM and the “% Activity” value is listed as “++ (between 25% to 100%)”.

For the compound `N#Cc1cccc(-c2ccccc2NC(=O)c2c[nH]c3ccccc3c2=O)c1` [Compound 83, N-[2-(3-cyanophenyl)phenyl]-4-oxo-1H-quinoline-3-carboxamide], the EC50 is under 10 µM and the “% Activity” value was “++ (between 25% to 100%)”.

As to `Cc1ccnc(NC(=O)c2c[nH]c3ccccc3c2=O)c1` [Compound 84, N-(4-methyl-2-pyridyl)-4-oxo-1H-quinoline-3-carboxamide], the EC50 is 25 to 60 µM and the “% Activity” value is “+ (<25%)”.

With `O=C(Nc1ccccc1-c1ccc(Cl)c(Cl)c1)c1c[nH]c2ccccc2c1=O` [Compound 85, N-[2-(3,4-dichlorophenyl)phenyl]-4-oxo-1H-quinoline-3-carboxamide], the EC50 is under 10 µM and the “% Activity” value is listed as “++ (between 25% to 100%)”.

For `NCc1ccccc1-c1ccc(NC(=O)c2c[nH]c3ccccc3c2=O)cc1` [Compound 86, N-[4-[2-(aminomethyl)phenyl]phenyl]-4-oxo-1H-quinoline-3-carboxamide], the half-maximal effective concentration (EC50) lay within 10 to 25 µM and the “% Activity” value was “++ (between 25% to 100%)”.

With `O=C(Nc1cccc(Oc2ccccc2)c1)c1c[nH]c2ccccc2c1=O` [Compound 87, 4-oxo-N-(3-phenoxyphenyl)-1H-quinoline-3-carboxamide], the EC50 was under 10 µM and the “% Activity” value is “++ (between 25% to 100%)”.

With `Cc1ccc(C#N)c(NC(=O)c2c[nH]c3ccccc3c2=O)c1` [Compound 89, N-(2-cyano-5-methyl-phenyl)-4-oxo-1H-quinoline-3-carboxamide], the EC50 lay within 25 to 60 µM and the “% Activity” value is “+ (<25%)”.

`CC(C)(C)c1ccccc1NC(=O)c1c[nH]c2ccccc2c1=O` [Compound 90, 4-oxo-N-(2-tert-butylphenyl)-1H-quinoline-3-carboxamide]: the concentration for a half-maximal effect (EC50) is under 10 µM and the “% Activity” value is given as “++ (between 25% to 100%)”.

As for `CCc1ccc(Cl)c(CC)c1NC(=O)c1c[nH]c2ccccc2c1=O` [Compound 91, N-(3-chloro-2,6-diethyl-phenyl)-4-oxo-1H-quinoline-3-carboxamide], the half-maximal effective concentration (EC50) was under 10 µM and the “% Activity” value is “++ (between 25% to 100%)”.

Consider `CC1(c2cc(F)c(NC(=O)c3c[nH]c4ccccc4c3=O)cc2O)CCCCC1` [Compound 92, N-[2-fluoro-5-hydroxy-4-(1-methylcyclohexyl)-phenyl]-4-oxo-1H-quinoline-3-carboxamide], for which the EC50 was under 10 µM and the “% Activity” value was “++ (between 25% to 100%)”.

As to `N#Cc1ccc(-c2ccccc2NC(=O)c2c[nH]c3ccccc3c2=O)s1` [Compound 93, N-[2-(5-cyano-2-thienyl)phenyl]-4-oxo-1H-quinoline-3-carboxamide], the EC50 was under 10 µM and the “% Activity” value was “++ (between 25% to 100%)”.

Regarding `Cc1ccc(N)cc1NC(=O)c1c[nH]c2ccccc2c1=O` [Compound 94, N-(5-Amino-2-methyl-phenyl)-4-oxo-1H-quinoline-3-carboxamide], the concentration giving a half-maximal response (EC50) was under 10 µM and the “% Activity” value is given as “++ (between 25% to 100%)”.

On to `N#Cc1ccccc1NC(=O)c1c[nH]c2ccccc2c1=O` [Compound 95, N-(2-cyanophenyl)-4-oxo-1H-quinoline-3-carboxamide], for which the EC50 was in the range of 10 to 25 µM and the “% Activity” value is listed as “++ (between 25% to 100%)”.

Regarding `N#CCc1c[nH]c2cc(NC(=O)c3c[nH]c4ccccc4c3=O)ccc12` [Compound 96, N-[3-(cyanomethyl)-1H-indol-6-yl]-4-oxo-1H-quinoline-3-carboxamide], the half-maximal effective concentration (EC50) was under 10 µM and the “% Activity” value is given as “++ (between 25% to 100%)”.

With `COc1ncc(-c2ccccc2NC(=O)c2c[nH]c3ccccc3c2=O)c(OC)n1` [Compound 97, N-[2-(2,4-dimethoxypyrimidin-5-yl)phenyl]-4-oxo-1H-quinoline-3-carboxamide], the concentration for a half-maximal effect (EC50) was under 10 µM and the “% Activity” value is listed as “++ (between 25% to 100%)”.

Consider `CCCc1ccc(N(C)C)cc1NC(=O)c1c[nH]c2ccccc2c1=O` [Compound 98, N-(5-dimethylamino-2-propyl-phenyl)-4-oxo-1H-quinoline-3-carboxamide], for which the concentration giving a half-maximal response (EC50) is under 10 µM and the “% Activity” value was “++ (between 25% to 100%)”.

For `CCCCCc1ccc(NC(=O)c2c[nH]c3ccccc3c2=O)cc1` [Compound 99, 4-oxo-N-(4-pentylphenyl)-1H-quinoline-3-carboxamide], the EC50 is under 10 µM and the “% Activity” value is “++ (between 25% to 100%)”.

`O=C(Nc1cccc2[nH]ccc12)c1c[nH]c2ccccc2c1=O` [Compound 100, N-(1H-indol-4-yl)-4-oxo-1H-quinoline-3-carboxamide]: the EC50 is 25 to 60 µM and the “% Activity” value is given as “+ (<25%)”.

`CC(C)c1ccc(N)cc1NC(=O)c1c[nH]c2ccccc2c1=O` [Compound 101, N-(5-amino-2-isopropyl-phenyl)-4-oxo-1H-quinoline-3-carboxamide]: the 50% effective concentration (EC50) is under 10 µM and the “% Activity” value is on record as “++ (between 25% to 100%)”.

In the case of `O=C(Nc1ccccc1-c1nc(-c2ccc(Cl)cc2)no1)c1c[nH]c2ccccc2c1=O` [Compound 102, N-[2-[3-(4-chlorophenyl)-1,2,4-oxadiazol-5-yl]phenyl]-4-oxo-1H-quinoline-3-carboxamide], the half-maximal effective concentration (EC50) was in the range of 10 to 25 µM and the “% Activity” value is recorded as “++ (between 25% to 100%)”.

As for `CC(C)(C)c1cc(C(C)(C)C)c(NC(=O)c2c[nH]c3ccc(F)cc3c2=O)cc1O` [Compound 103, 6-fluoro-N-(5-hydroxy-2,4-ditert-butyl-phenyl)-4-oxo-1H-quinoline-3-carboxamide], the EC50 was under 10 µM and the “% Activity” value is given as “+++ (>100%)”.

With `Cc1cc2ccc(NC(=O)c3c[nH]c4ccccc4c3=O)cc2[nH]1` [Compound 104, N-(2-methyl-1H-indol-6-yl)-4-oxo-1H-quinoline-3-carboxamide], the EC50 is under 10 µM and the “% Activity” value is recorded as “++ (between 25% to 100%)”.

Consider `O=C(Nc1ccc2c(c1)NCCO2)c1c[nH]c2ccccc2c1=O` [Compound 105, 1,4-dihydro-N-(3,4-dihydro-2H-benzo[b][1,4]oxazin-6-yl)-4-oxoquinoline-3-carboxamide], for which the EC50 is 10 to 25 µM and the “% Activity” value is “++ (between 25% to 100%)”.

Turning to `COc1cc(C#N)c(NC(=O)c2c[nH]c3ccccc3c2=O)cc1OC` [Compound 106, N-(2-cyano-4,5-dimethoxy-phenyl)-4-oxo-1H-quinoline-3-carboxamide], the EC50 fell in the range of 25 to 60 µM and the “% Activity” value is on record as “+ (<25%)”.
